US12077503B2, “Substituted cyclic amides and their use as herbicides” (FMC CORPORATION, priority 2015, dated 2024)

Columns and labels:
Format in all cases: in vivo
Kochia (Kochia scoparia) [1] = assay: Test A preemergence; conditions: Bassia scoparia, pre-emergence, 240 h, read-out: Plant response rating, Kochia
Outline: (§1)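 Treatment is preemergence as a directed soil spray after planting, or postemergence at the one- to two-leaf stage, with test chemical in a non-phytotoxic solvent mixture plus surfactant. Plants stay in the greenhouse about 10 d before visual injury scoring on a 0 to 100 scale versus untreated controls.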

[2] = tested on: barnyardgrass (Echinochloa crus-galli); assay: Test A preemergence; conditions: Echinochloa crus-galli, pre-emergence, 240 h, read-out: Plant response rating, Barnyardgrass
Outline: as §1

[3] = tested on: giant foxtail (Setaria faberii); assay: Test A preemergence; conditions: Setaria faberi, pre-emergence, 240 h, read-out: Plant response rating, Foxtail, Giant
Outline: as §1

[4] = tested on: pigweed (Amaranthus retroflexus); assay: Test A preemergence; conditions: Amaranthus retroflexus, pre-emergence, 240 h, read-out: Plant response rating, Pigweed
[5] = tested on: ragweed (common ragweed, Ambrosia elatior); assay: Test A preemergence; conditions: Ambrosia artemisiifolia, pre-emergence, 240 h, read-out: Plant response rating, Ragweed
Outline: as §1

[6] = tested on: ryegrass, Italian (Italian ryegrass, Lolium multiflorum); assay: Test A preemergence; conditions: Lolium multiflorum, pre-emergence, 240 h, read-out: Plant response rating, Ryegrass, Italian
Outline: as §1

[7] = tested on: Galium (catchweed bedstraw, Galium aparine); assay: Test A postemergence; conditions: Galium, post-emergence, 240 h
Outline: as §1

Kochia (Kochia scoparia) [8] = assay: Test A postemergence; conditions: Bassia scoparia, post-emergence, 240 h
Outline: as §1

[9] = tested on: barnyardgrass (Echinochloa crus-galli); assay: Test A postemergence; conditions: Echinochloa crus-galli, post-emergence, 240 h
Outline: as §1

corn (Zea mays) = assay: Test A postemergence; conditions: Zea mays, post-emergence, 240 h
Outline: as §1

[10] = tested on: giant foxtail (Setaria faberii); assay: Test A postemergence; conditions: Setaria faberi, post-emergence, 240 h
Outline: as §1

[11] = tested on: pigweed (Amaranthus retroflexus); assay: Test A postemergence; conditions: Amaranthus retroflexus, post-emergence, 240 h
Outline: as §1

[12] = tested on: ragweed (common ragweed, Ambrosia elatior); assay: Test A postemergence; conditions: Ambrosia artemisiifolia, post-emergence, 240 h
Outline: as §1

[13] = tested on: ryegrass, Italian (Italian ryegrass, Lolium multiflorum); assay: Test A postemergence; conditions: Lolium multiflorum, post-emergence, 240 h
Outline: as §1

[14] = tested on: wheat (Triticum aestivum); assay: Test A postemergence; conditions: Triticum aestivum, post-emergence, 240 h
Outline: as §1

[15] = 125 g ai/ha, preemergence, visual rating after approx. 10 d, 0 to 100 scale where 0 is no effect and 100 is complete control
[16] = Preemergence, 31 g ai/ha, 0 to 100 scale (0 no effect, 100 complete control)

CN1CC[C@H](c2cccc(OC(F)(F)F)c2)[C@@H](C(=O)Nc2cccc(F)c2F)C1=O [Compound 807]
pest or weed control at 125 g/ha (Kochia (Kochia scoparia) [1]; [15]): 50% | pest or weed control at 31 g/ha (Kochia (Kochia scoparia) [1]; [16]): 0% | pest or weed control at 125 g/ha [2, 15]: 100% | pest or weed control at 31 g/ha [2, 16]: 100% | pest or weed control at 125 g/ha [3, 15]: 100% | pest or weed control at 31 g/ha [3, 16]: 100% | pest or weed control at 125 g/ha [4, 15]: 40% | pest or weed control at 31 g/ha [4, 16]: 0% | pest or weed control at 125 g/ha [5, 15]: 0% | pest or weed control at 31 g/ha [5, 16]: 0% | pest or weed control at 125 g/ha [6, 15]: 70% | pest or weed control at 31 g/ha [6, 16]: 20% | pest or weed control at 125 g/ha ([7]; 125 g ai/ha, postemergence, visual injury rating after approximately 10 d, read-out: Galium plant response rating (0 to 100 scale, 0 no effect, 100 complete control)): 0% | pest or weed control at 31 g/ha ([7]; Postemergence, 31 g ai/ha, visual injury after approx. 10 d, 0 to 100 scale, 0 no effect, 100 complete control, read-out: Plant response rating, Galium): 0% | pest or weed control at 125 g/ha (Kochia (Kochia scoparia) [8]; 125 g ai/ha, postemergence, visual injury rating after approximately 10 d, read-out: Kochia plant response rating (0 to 100 scale, 0 no effect, 100 complete control)): 0% | pest or weed control at 31 g/ha (Kochia (Kochia scoparia) [8]; Postemergence, 31 g ai/ha, visual injury after approx. 10 d, 0 to 100 scale, 0 no effect, 100 complete control, read-out: Plant response rating, Kochia): 0% | pest or weed control at 125 g/ha ([9]; 125 g ai/ha, postemergence, visual injury rating after approximately 10 d, read-out: Barnyardgrass plant response rating (0 to 100 scale, 0 no effect, 100 complete control)): 80% | pest or weed control at 31 g/ha ([9]; Postemergence, 31 g ai/ha, visual injury after approx. 10 d, 0 to 100 scale, 0 no effect, 100 complete control, read-out: Plant response rating, Barnyardgrass): 70% | plant injury at 125 g/ha (corn (Zea mays); 125 g ai/ha, postemergence, visual injury rating after approximately 10 d, read-out: Corn plant response rating (0 to 100 scale, 0 no effect, 100 complete control)): 70% | Corn plant response rating (crop injury, 0 = no effect, 100 = complete kill) at 31 g/ha (corn (Zea mays); Postemergence, 31 g ai/ha, visual injury after approx. 10 d, 0 to 100 scale, 0 no effect, 100 complete control): 0% | pest or weed control at 125 g/ha ([10]; 125 g ai/ha, postemergence, visual injury rating after approximately 10 d, read-out: Foxtail, Giant plant response rating (0 to 100 scale, 0 no effect, 100 complete control)): 80% | pest or weed control at 31 g/ha ([10]; Postemergence, 31 g ai/ha, visual injury after approx. 10 d, 0 to 100 scale, 0 no effect, 100 complete control, read-out: Plant response rating, Foxtail, Giant): 70% | pest or weed control at 125 g/ha ([11]; 125 g ai/ha, postemergence, visual injury rating after approximately 10 d, read-out: Pigweed plant response rating (0 to 100 scale, 0 no effect, 100 complete control)): 0% | pest or weed control at 31 g/ha ([11]; Postemergence, 31 g ai/ha, visual injury after approx. 10 d, 0 to 100 scale, 0 no effect, 100 complete control, read-out: Plant response rating, Pigweed): 0% | pest or weed control at 125 g/ha ([12]; 125 g ai/ha, postemergence, visual injury rating after approximately 10 d, read-out: Ragweed plant response rating (0 to 100 scale, 0 no effect, 100 complete control)): 0% | pest or weed control at 31 g/ha ([12]; Postemergence, 31 g ai/ha, visual injury after approx. 10 d, 0 to 100 scale, 0 no effect, 100 complete control, read-out: Plant response rating, Ragweed): 0% | pest or weed control at 125 g/ha ([13]; 125 g ai/ha, postemergence, visual injury rating after approximately 10 d, read-out: Ryegrass, Italian plant response rating (0 to 100 scale, 0 no effect, 100 complete control)): 0% | pest or weed control at 31 g/ha ([13]; Postemergence, 31 g ai/ha, visual injury after approx. 10 d, 0 to 100 scale, 0 no effect, 100 complete control, read-out: Plant response rating, Ryegrass, Italian): 0% | plant injury at 125 g/ha ([14]; 125 g ai/ha, postemergence, visual injury rating after approximately 10 d, read-out: Wheat plant response rating (0 to 100 scale, 0 no effect, 100 complete control)): 30% | plant injury at 31 g/ha ([14]; Postemergence, 31 g ai/ha, visual injury after approx. 10 d, 0 to 100 scale, 0 no effect, 100 complete control, read-out: Plant response rating, Wheat): 0%
